Data set [1] is described as follows: Midazolam permeability of intestinal epithelial cells (apical to basolateral, cell culture insert). The data set is classed as in vitro ADME. The note with it: human; for Papp A→B at 60 min, 10 μmol/L: 10 μmol/L midazolam apical pH 6.5, basolateral pH 7.4, 37° C., read-out: Apparent permeability coefficient; for Papp at 60 min, 10 μmol/L: read-out: Apparent permeability coefficient after correction. The method, then:
The midazolam permeability of the intestinal epithelial cells obtained in Comparative Examples 1 and Examples 1 to 5 was evaluated. After the end of the induction of differentiation, HBSS (pH 6.5) was added to the apical side and HBSS (pH 7.4) was added to the lower bottom (basolateral) side, and pre-incubation was carried out at 37° C. for 60 minutes. Then, HBSS (pH 6.5) containing 10 μmol/L midazolam was added to the apical side, and HBSS (pH 7.4) was added to the lower bottom (basolateral) side, and incubation was carried out at 37° C. for 60 minutes. A sample was collected from the lower bottom (basolateral) side every 15 minutes. The amount of each compound (unchanged form) was quantified using a liquid chromatography-mass spectrometer (LC-MS/MS). The apparent permeability coefficient (Papp) was calculated from the quantification result.
The apparent permeability coefficient was corrected by using the scaling factor x for the apparent permeability coefficient of Example 4 obtained in Test Example 6. At this time, the following expression was used.
The permeation amount per unit time=(the B60 substrate amount−x ×the difference in the B60 substrate amount due to the presence or absence of the addition of the metabolism inhibitor)/the permeation time

Data set [2] relates to intestinal epithelial cells. Description: Fg of midazolam calculated from the permeation test (Expression 1 / Expression 2). The data set is classed as in vitro ADME, human. The following applies: cells of Example 4. The method, then:
Fg=(the B60 substrate amount+the cell 60 substrate amount)/(the B60 substrate amount +cell 60 substrate amount+the total 60 metabolite amount) (Expression 1)
The B60 substrate amount: The mass of the substrate permeated to the B side 60 minutes after the test substance serving as a substrate was added to the A side.
The cell 60 substrate amount: The mass of the substrate accumulated in the cells 60 minutes after the test substance serving as a substrate was added to the A side.
The total 60 metabolite amount: Total amount of the metabolite accumulated on the A, on the B side, and in the cells 60 minutes after the test substance serving as a substrate was added to the A side.

Data set [3] relates to small intestinal tissue of a living body. The note with it: in vitro; cited from earlier work.
For data set [4] the following is noted: small intestine of a living body; cited from earlier work.

Structures are written as SMILES. Where two headings read alike, the source gives them in different places.

Consider `Cc1ncc2n1-c1ccc(Cl)cc1C(c1ccccc1F)=NC2` [midazolam], for which the Papp A→B at 60 min, 10 μmol/L in data set [1] (cells of Comparative Example 1) turned out to be 48 ×10⁻⁶ cm/s; in data set [1] (cells of Example 1), 30 ×10⁻⁶ cm/s; in data set [1] (cells of Example 2) it was 32 ×10⁻⁶ cm/s; in data set [1] (cells of Example 3), 33 ×10⁻⁶ cm/s; in data set [1] (cells of Example 4), 31 ×10⁻⁶ cm/s; in data set [1] (cells of Example 5), 31 ×10⁻⁶ cm/s. Also, the Papp at 60 min, 10 μmol/L in data set [1] (cells of Example 4, scaling factor x = 2) came out at 21.9 ×10⁻⁶ cm/s; in data set [1] (cells of Example 4, scaling factor x = 3), 15.2 ×10⁻⁶ cm/s; in data set [1] (cells of Example 4, scaling factor x = 4) it was 8.6 ×10⁻⁶ cm/s; in data set [1] (cells of Example 4, scaling factor x = 5), 1.9 ×10⁻⁶ cm/s; in data set [1] (cells of Example 4, scaling factor x = 5.2), 0.6 ×10⁻⁶ cm/s. Further, the “Fg simply calculated by Expression 1” value in data set [2] (no scaling factor) is on record as 0.83. Besides, the Fg after correction in data set [2] (scaling factor x = 1) is on record as 0.83; in data set [2] (scaling factor x = 2), 0.70; in data set [2] (scaling factor x = 4), 0.54; in data set [2] (scaling factor x = 6) it was 0.44; in data set [2] (scaling factor x = 8) it was 0.37; in data set [2] (scaling factor x = 10), 0.32. The Fg after correction in data set [2] (scaling factor x = 12) is 0.28. Moreover, the apparent permeability coefficient in data set [3] is 5 ×10⁻⁶ cm/s. In data set [4], the “Fa (absorption rate in the intestinal tract)” value is recorded as 1.0.

Values taken from patent publication US20230126568A1, “PRODUCTION METHOD FOR […] AND UTILIZATION THEREOF” (FUJIFILM Corporation, priority 2020, published 2023).
